Laboratory results reported in patent US7173062B2, “Method for the improvement of skin wrinkles using retinyl retinoate” (Enprani Co., Ltd., priority 2001, dated 2007).

Test system: normal human fibroblast (Newborn)
Assay: Cell toxicity test (MTT method)
Format: cell-based
Conditions: comparison in words
Description: Cell toxicity of the compound of formula (1) is examined at concentrations ranging from 10^−6 to 10^−3%(W/V) using normal human fibroblast (Newborn), and the skin irritating property is examined by a patch test for the skin of normal adults. Further, the effect of increasing the collagen synthesis in a human fibroblast cell is measured to identify the cell regeneration effect of the compound of formula (1), photostability is identified by measuring ^1H NMR of the compound of formula (1) after the compound is irradiated by UV light (356 nm) at certain intervals of time, and thermal stability is identified by quantifying the amount at 40° C. (Experiments 1 to 5).
In order to verify the primary stability as a material for medicines and cosmetics, cell toxicity of the retinal retaliate of formula (1) was determined according to MTT method (see: Mossman T., Rapid calorimetric assay for cellular growth & amp;survival:application to proliferation & amp;cytotoxity assays. Journal of Immunological Methods 65, 55–63, 1983) using normal human fibroblast (Newborn) and the results are shown in FIG. 1.

With `CC1=C(/C=C/C(C)=C/C=C/C(C)=C/COC(=O)/C=C(C)/C=C/C=C(C)/C=C/C2=C(C)CCCC2(C)C)C(C)(C)CCC1` [Compound of formula (1), Retinyl retinoate] the “cell toxicity (FIG. 1)” value was “lower intracellular toxicity than retinol, retinoic acid, or derivatives thereof”.
